Experimental data reported in US11230542B2, “Inhibitors of integrated stress response pathway” (Praxis Biotech LLC, priority 2017, dated 2022).
Where two headings read alike, the source gives them in different places.

What was measured:
ATF4 = ATF4 expression inhibition assay (thapsigargin-stressed HEK293T cells, western blot); assay type: cell-based; settings: Homo sapiens, HEK-293T; for inhibition at 0.1 µM: 3 h with 100 nM thapsigargin (Tg) and 100 nM test compound; for inhibition at 0.1 µM / inhibition at 1 µM: Tg alone 0%, untreated 100%; for inhibition at 1 µM: 3 h with 100 nM thapsigargin (Tg) and 1 μM test compound; for IC50: 3 h with 100 nM Tg, test compound 1 nM to 1 μM
Description: HEK293T cells were maintained at 37° C. and 5% CO2 in Dulbecco's Modified Eagle's Media (DMEM) supplemented with 10% fetal bovine serum (FBS), 2 mM L-glutamine, 100 U/ml penicillin, and 100 μg/ml streptomycin. […] Cells without treatment or cells treated with Tg alone were used as controls.
After 3 hours of treatment with Tg and the test compound, cells were lysed with SDS-PAGE lysis buffer. Lysates were transferred to 1.5 ml tubes and sonicated for 3 min, and total protein amounts were quantified using BCA Protein Assay Kit (Pierce). Equal amount of proteins were loaded on SDS-PAGE gels. Proteins were transferred onto 0.2 μm PVDF membranes (BioRad) and probed with primary antibodies diluted in Tris-buffered saline supplemented with 0.1% Tween 20 and 3% bovine serum albumin.
(§1) ATF4 (11815) antibody was used as primary antibody (Cell Signaling Technologies). A horseradish peroxidase (HRP)-conjugated secondary antibody (Rockland) was employed to detect immune-reactive bands using enhanced chemiluminescence (ECL Western Blotting Substrate, Pierce). Quantification of protein bands was done by densitometry using ImageJ.
Percentages of ATF4 inhibition after induction with Tg in the presence of 100 nM or 1 μM of certain test compounds are shown in Table 2 and FIG. 1. Percentage of ATF4 inhibition was calculated as the percent reduction normalized to Tg treatment (0% inhibition) and untreated cells (100% inhibition). Also shown in Table 2 is the calculated IC50 for the test compounds. […] Accordingly, inhibition of ATF4 expression as a result of the test compound indicates suppression of the ISR pathway.

CHO cells = test: Protein translation assay (puromycin incorporation in CHO cells, unstressed or Tg-stressed); assay type: cell-based, Chinese hamster; settings: for activity at 0.1 µM / activity at 1 µM: Cricetulus griseus, media alone 100%; for activity at 0.1 µM: read-out: % Recovery of protein expression (100 nM test compound); for protein translation: summary of Table 3; for protein synthesis in a cell versus ATF4 translation: under ISR-stressed or non-ISR stressed conditions
Description: CHO cells were maintained at 37° C. and 5% CO2 in DMEM supplemented with 10% fetal bovine serum (FBS), 2 mM L-glutamine, 100 U/ml penicillin, and 100 μg/ml streptomycin. After reaching 80% of confluence, cells were detached and seeded on 6 well plates in complete media, allowed to recover overnight and treated for 2 hours with 1 μM of the test compound (to assess protein synthesis levels in unstressed condition), or for 1 hour with 100 nM and 1 μM of the test compound and then co-treated with 300 nM Tg and 100 nM and 1 μM of the test compound (to assess the recovery of protein synthesis in a stressed condition). Cells treated with Tg alone were used as controls.
After the 2 hours treatments, media were replaced by adding 10 μg/ml puromycin (Sigma Aldrich) in complete media for 30 min. Media were removed and cells were lysed with SDS-PAGE lysis buffer. Lysates were transferred to 1.5 ml tubes and sonicated for 3 minutes and total protein amount were quantified using BCA Protein Assay Kit (Pierce). Equal amount of protein (30 μg) was loaded on SDS-PAGE gels. Proteins were transferred onto 0.2 μm PVDF membranes (BioRad) and probed with primary antibodies diluted in Tris-buffered saline supplemented with 0.1% Tween 20 and 3% bovine serum albumin.
as §1, with “Puromycin (12D10)” for “ATF4 (11815)”, “(Merck Millipore).” for “(Cell Signaling Technologies).”, “HRP-conjugated” for “horseradish peroxidase (HRP)-conjugated”
Percent increase of protein synthesis in unstressed cells (without Tg treatment) in the presence of media alone or certain test compounds is shown in Table 3 and FIG. 2. The percentage levels were normalized to the media alone condition, which correspond to 100% protein synthesis.
Percent recovery of protein synthesis in stressed cells (with Tg treatment) due to the test compounds at 100 nM or 1 μM is shown in FIGS. 3A and 3B, respectively, and in Table 3. The levels were normalized to the media alone and to Tg alone conditions, which correspond to 100% and 0% respectively.

[1] = CHO cells stressed with 300 nM Tg, Tg alone 0%
[2] = CHO cells stressed with 300 nM Tg, Tg alone 0%, read-out: % Recovery of protein expression (1 μM test compound)
[3] = unstressed CHO cells, 2 h, read-out: % Protein expression relative to untreated (1 μM test compound)

SMILES	inhibition at 0.1 µM (ATF4) [%]	inhibition at 1 µM (ATF4) [%]	activity at 0.1 µM (CHO cells; [1]) [%]	activity at 1 µM (CHO cells; [2]) [%]	activity at 1 µM (CHO cells; [3]) [%]	protein translation (CHO cells)	protein synthesis in a cell versus ATF4 translation (CHO cells)	IC50 (ATF4) [nM]
O=C(NC1CCN(C[C@@H](O)COc2ccc(Cl)c(F)c2)CC1)c1cc2cc(Cl)ccc2o1 (single isomer, unassigned) [Compound 150, (−)-5-chloro-N-(1-(3-(4-chloro-3-fluorophenoxy)-2-hydroxypropyl)piperidin-4-yl)benzofuran-2-carboxamide]	0	43	61	200	184	increased protein translation	increase protein synthesis in a cell without full inhibition of ATF4 translation	–
O=C(N[C@H]1CC[C@H](NC[C@@H](O)COc2ccc(Cl)c(F)c2)CC1)c1cc2cc(Cl)ccc2o1 (single isomer, unassigned) [Compound 154, (+)-trans-5-chloro-N-(4-((3-(4-chloro-3-fluorophenoxy)-2-hydroxypropyl)amino)cyclohexyl)benzofuran-2-carboxamide]	92	96	96.3	234	188	–	–	13.7
O=C(N[C@H]1CC[C@H](NCC(O)COc2ccc(Cl)c(F)c2)CC1)c1cc2cc(Cl)ccc2o1 (single isomer, unassigned; (-)) [Compound 155, (−)-trans-5-chloro-N-(4-((3-(4-chloro-3-fluorophenoxy)-2-hydroxypropyl)amino)cyclohexyl)benzofuran-2-carboxamide]	60	75	68.5	190	263	–	–	–
O=C(COc1ccc(Cl)c(F)c1)N[C@H]1CC[C@H](NC(=O)c2ccc3cc(Cl)ccc3c2)CC1 [Compound 145, trans-6-chloro-N-(4-(2-(4-chloro-3-fluorophenoxy)acetamido)cyclohexyl)-2-naphthamide]	97	97	22.6	40.6	95.4	–	–	17.1
O=C(NC1CCN(CC(O)COc2ccc(Cl)c(F)c2)CC1)C1Cc2cc(Cl)ccc2O1 (stereo not drawn) [Compound 20, 5-chloro-N-(1-(3-(4-chloro-3-fluorophenoxy)-2-hydroxypropyl)piperidin-4-yl)-2,3-dihydrobenzofuran-2-carboxamide]	14	64	38.6	93.9	–	–	–	–
O=C(NC1CCN(CCCOc2ccc(Cl)c(F)c2)CC1)c1ccc2cc(Cl)ccc2n1 [Compound 146, 6-chloro-N-(1-(3-(4-chloro-3-fluorophenoxy)propyl)piperidin-4-yl)quinoline-2-carboxamide]	88	100	43.4	265	246	–	–	49.9
O=C(COc1ccc(Cl)c(F)c1)N[C@H]1CC[C@H](NC[C@@H](O)COc2ccc(Cl)c(F)c2)CC1 (single isomer, unassigned) [Compound 6, (+)-2-(4-chloro-3-fluorophenoxy)-N-(4-((3-(4-chloro-3-fluorophenoxy)-2-hydroxypropyl)amino)cyclohexyl)acetamide]	52	83	60.2	197	195	–	–	82.8
O=C(NC1CCN(CCCOc2ccc(Cl)c(F)c2)CC1)c1cc2cc(Cl)ccc2o1 [Compound 148, 5-chloro-N-(1-(3-(4-chloro-3-fluorophenoxy)propyl)piperidin-4-yl)benzofuran-2-carboxamide]	30	90	37.2	250	123	–	–	–
O=C(COc1ccc(Cl)cc1)N[C@H]1CC[C@H](NCC(O)COc2ccc(Cl)cc2)CC1 (stereo partly drawn) [Compound 1, trans-2-(4-chlorophenoxy)-N-(4-((3-(4-chlorophenoxy)-2-hydroxypropyl)amino)cyclohexyl)acetamide]	0	71	63.8	160	152	–	–	353
O=C(COc1ccc(Cl)cc1)N[C@H]1CC[C@H](N2CC(COc3ccc(Cl)cc3)OC2=O)CC1 (stereo partly drawn) [Compound 159, trans-2-(4-chlorophenoxy)-N-(4-(5-((4-chlorophenoxy)methyl)-2-oxooxazolidin-3-yl)cyclohexyl)acetamide]	52	84	23.9	79.4	–	–	–	< 100
O=C(COc1ccc(Cl)c(F)c1)N[C@H]1CC[C@H](NCC(O)COc2ccc(Cl)c(F)c2)CC1 (stereo partly drawn) [Compound 2, trans-2-(4-chloro-3-fluorophenoxy)-N-(4-((3-(4-chloro-3-fluorophenoxy)-2-hydroxypropyl)amino)cyclohexyl)acetamide]	40	56	42.5	135	136	–	–	163
O=C(COc1ccc(Cl)cc1)N[C@H]1CC[C@H](NC(=O)C2CNc3cc(Cl)ccc3O2)CC1 (single isomer, unassigned; (-)) [Compound 157, (−)-trans-6-chloro-N-(4-(2-(4-chlorophenoxy)acetamido)cyclohexyl)-3,4-dihydro-2H-benzo[b][1,4]oxazine-2-carboxamide]	96	100	39.7	97.3	118	–	–	23.8
O=C(N[C@H]1CC[C@H](NCCOc2ccc(Cl)c(F)c2)CC1)c1cc2cc(Cl)ccc2o1 [Compound 32, trans-5-chloro-N-(4-((2-(4-chloro-3-fluorophenoxy)ethyl)amino)cyclohexyl)benzofuran-2-carboxamide]	38	78	37.7	234	137	–	–	–
O=C(COc1ccc(Cl)cc1)N[C@H]1CC[C@H](NC(=O)[C@@H]2CNc3cc(Cl)ccc3O2)CC1 (single isomer, unassigned) [Compound 158, (+)-trans-6-chloro-N-(4-(2-(4-chlorophenoxy)acetamido)cyclohexyl)-3,4-dihydro-2H-benzo[b][1,4]oxazine-2-carboxamide]	96	96	86.8	199	168	–	–	9.1
O=C(N[C@H]1CC[C@H](NCC(O)COc2ccc(Cl)c(F)c2)CC1)c1ccc2cc(Cl)ccc2n1 (stereo partly drawn) [Compound 30, trans-6-chloro-N-(4-((3-(4-chloro-3-fluorophenoxy)-2-hydroxypropyl)amino)cyclohexyl)quinoline-2-carboxamide]	35	35	23.1	182	206	increased protein translation	increase protein synthesis in a cell without full inhibition of ATF4 translation	> 3000
